In patent publication US5565425A, “Viral infection and proliferation inhibitors” (Snow Brand Milk Products Co., Ltd, priority 1993, dated 1996):
Bridge positions count the residues as written; N and C are the ends. Peptide text beside a SMILES is read from it.

Assays:
[1] = tested on: influenza virus A/PR/8/34; settings: 100 μl of one mg/ml solution in allantoic cavity three hours before virus; average of five eggs
[2] = tested on: mouse cytomegalo virus (mouse CMV); assay: In vivo inhibitory activity against mouse CMV infection (survival of mice); settings: after 10 days
Protocol: (§1) (Method) Male Balbc/AJcl mice, 4-week-old (10 in one group) were used. The sample was dissolved in phosphate buffer saline solution (PBS) and intraperitoneally administered to mice.

[3] = tested on: mouse cytomegalo virus (mouse CMV); assay: Infection protective test against mouse CMV by the time of administration; assay type: in vivo; settings: mice, 0.10 g/kg i.p., after 10 days
Protocol: as §1, with “mice. […] Timing of administrations of the sample was made 48, 24, six and one hr. before, immediately after, one and six hrs. after the administration.” for “mice.”

[4] = tested on: Human CMV (Tanaka strain); assay: Inhibitory activity against human CMV infection and proliferation in HELF cells (fluorescence staining); assay type: cell-based, Human cytomegalo virus
Protocol: (Method) LF derived peptide was dissolved in 2% serum added MEM medium to give five mg/ml solution, filtered and sterilized to make a stock solution. The stock solution was diluted with 2% serum added MEM medium on use. Samples containing human embryo lung fibroblast cells (HELF cells) were suspended in 2% serum added MEM medium and incubated for 10 minutes. The cells were collected by centrifugation, washed twice with 2% serum added MEM medium and suspended in 2% serum added MEM medium. Human cytomegalo virus [Human CMV (Tanaka strain)] was added, incubated for 24 hrs., fluorescence stained with human CMV positive serum and the adsorption rate of human CMV to the cells was determined.
The results are judged from the numbers of fluorescent stained cells per one cover slip.

HIV (HTLV-IIIB) = assay: Inhibitory activity against HIV infection and proliferation in MT-4 cells (indirect fluorescence antibody method); assay type: cell-based, human immunodeficiency virus (HIV); settings: three days, positive control 26.0%
Protocol: (Method) Cultured supernatant of MOLT-4/HTLV-IIIB cells, a HTLV-IIIB persistent infected strain of HIV, was used as a viral solution. The supernatant was kept at -80° C. Human T cell line MT-4 was used for the test. MT-4 was subcultured in RPMI 1640 medium containing 10% fetal calf serum (FCS). Sample, LF derived peptide, was dissolved in RPMI 1640 medium and one ml of the diluted solution at various concentrations was added to the cells. The inoculated MT-4 test sample was incubated for 60 minutes and infected with HIV at a concentration of moi […]=0.01 and one ml of the cell solution adjusted at a cell density of 3×10^5 cells/ml was added. The cells were cultured for three days : and HIV infected cells were determined with an indirect fluorescence antibody method.
HIV infected cells were determined by the indirect fluorescence antibody method using HIV infected patient serum as a primary antibody. […] HIV infected MT-4 cells cultured without addition of the sample was used as a positive control and cells without addition of viral solution was cultured to make a negative control group.

CC[C@H](C)[C@H](NC(=O)[C@@H]1CSSC[C@H](NC(=O)[C@H](CCCCN)NC(=O)[C@@H](N)[C@@H](C)O)C(=O)N[C@@H](Cc2ccccc2)C(=O)N[C@@H](CCC(N)=O)C(=O)N[C@@H](Cc2c[nH]c3ccccc23)C(=O)N[C@@H](CCC(N)=O)C(=O)N[C@@H](CCCNC(=N)N)C(=O)N[C@@H](CC(N)=O)C(=O)N[C@@H](CCSC)C(=O)N[C@@H](CCCNC(=N)N)C(=O)N[C@@H](CCCCN)C(=O)N[C@@H](C(C)C)C(=O)N[C@@H](CCCNC(=N)N)C(=O)NCC(=O)N2CCC[C@H]2C(=O)N2CCC[C@H]2C(=O)N[C@@H](C(C)C)C(=O)N[C@@H](CO)C(=O)N1)C(=O)N[C@@H](CCCCN)C(=O)N[C@@H](CCCNC(=N)N)C(=O)N[C@@H](CC(=O)O)C(=O)N[C@@H](CO)C(=O)O [Human LF (18-42)] (H-TKCFQWQRNMRKVRGPPVSCIKRDS-OH; disulfide 3-20)
Inhibitory rate of infection and proliferation of influenza virus [1]: 96.9% | Survival rate ([2]; 0.02 g/kg of body weight i.p. 24 hrs. before mouse CMV): 20% | Survival rate ([2]; 0.05 g/kg of body weight i.p. 24 hrs. before mouse CMV): 50% | Survival rate ([2]; 0.10 g/kg of body weight i.p. 24 hrs. before mouse CMV): 100% | Survival rate ([2]; 0.50 g/kg of body weight i.p. 24 hrs. before mouse CMV): 100% | Survival rate ([3]; time of administration 0 hrs.): 100% | Survival rate ([3]; time of administration +1 hrs.): 100% | Survival rate ([3]; time of administration +6 hrs.): 60% | Survival rate ([3]; time of administration -1 hrs.): 100% | Survival rate ([3]; time of administration -6 hrs.): 100% | Survival rate ([3]; time of administration -24 hrs.): 100% | Survival rate ([3]; time of administration -48 hrs.): 60% | Inhibitory rate of human CMV infection ([4]; 24 hrs., concentration not given): 95.7% | Inhibitory rate (human CMV infection and proliferation) ([4]; concentration 0.04 mg/ml): 14.7% | Inhibitory rate (human CMV infection and proliferation) ([4]; concentration 0.1 mg/ml): 34.9% | Inhibitory rate (human CMV infection and proliferation) ([4]; concentration 0.2 mg/ml): 45.0% | Inhibitory rate (human CMV infection and proliferation) ([4]; concentration 0.4 mg/ml): 51.9% | Inhibitory rate (human CMV infection and proliferation) ([4]; concentration 1.0 mg/ml): 86.0% | Inhibitory rate (human CMV infection and proliferation) ([4]; concentration 2.0 mg/ml): 96.1% | ratio of stained (HIV infected) cells (HIV (HTLV-IIIB); sample 63 μg/ml): 17% | ratio of stained (HIV infected) cells (HIV (HTLV-IIIB); sample 125 μg/ml): 8.8% | ratio of stained (HIV infected) cells (HIV (HTLV-IIIB); sample 250 μg/ml): 6.7% | ratio of stained (HIV infected) cells (HIV (HTLV-IIIB); sample 500 μg/ml): 2.9% | ratio of stained (HIV infected) cells (HIV (HTLV-IIIB); sample 1,000 μg/ml): 1.1%
